This is an account of results in patent publication US8686143B2, “Compounds useful as inhibitors of Janus kinases” (Vertex Pharmaceuticals Incorporated, priority 2007, dated 2014).

The target in this assay is T1, JAK3 (Homo sapiens, UniProt P52333).
T1 sequence (P52333 1-1124): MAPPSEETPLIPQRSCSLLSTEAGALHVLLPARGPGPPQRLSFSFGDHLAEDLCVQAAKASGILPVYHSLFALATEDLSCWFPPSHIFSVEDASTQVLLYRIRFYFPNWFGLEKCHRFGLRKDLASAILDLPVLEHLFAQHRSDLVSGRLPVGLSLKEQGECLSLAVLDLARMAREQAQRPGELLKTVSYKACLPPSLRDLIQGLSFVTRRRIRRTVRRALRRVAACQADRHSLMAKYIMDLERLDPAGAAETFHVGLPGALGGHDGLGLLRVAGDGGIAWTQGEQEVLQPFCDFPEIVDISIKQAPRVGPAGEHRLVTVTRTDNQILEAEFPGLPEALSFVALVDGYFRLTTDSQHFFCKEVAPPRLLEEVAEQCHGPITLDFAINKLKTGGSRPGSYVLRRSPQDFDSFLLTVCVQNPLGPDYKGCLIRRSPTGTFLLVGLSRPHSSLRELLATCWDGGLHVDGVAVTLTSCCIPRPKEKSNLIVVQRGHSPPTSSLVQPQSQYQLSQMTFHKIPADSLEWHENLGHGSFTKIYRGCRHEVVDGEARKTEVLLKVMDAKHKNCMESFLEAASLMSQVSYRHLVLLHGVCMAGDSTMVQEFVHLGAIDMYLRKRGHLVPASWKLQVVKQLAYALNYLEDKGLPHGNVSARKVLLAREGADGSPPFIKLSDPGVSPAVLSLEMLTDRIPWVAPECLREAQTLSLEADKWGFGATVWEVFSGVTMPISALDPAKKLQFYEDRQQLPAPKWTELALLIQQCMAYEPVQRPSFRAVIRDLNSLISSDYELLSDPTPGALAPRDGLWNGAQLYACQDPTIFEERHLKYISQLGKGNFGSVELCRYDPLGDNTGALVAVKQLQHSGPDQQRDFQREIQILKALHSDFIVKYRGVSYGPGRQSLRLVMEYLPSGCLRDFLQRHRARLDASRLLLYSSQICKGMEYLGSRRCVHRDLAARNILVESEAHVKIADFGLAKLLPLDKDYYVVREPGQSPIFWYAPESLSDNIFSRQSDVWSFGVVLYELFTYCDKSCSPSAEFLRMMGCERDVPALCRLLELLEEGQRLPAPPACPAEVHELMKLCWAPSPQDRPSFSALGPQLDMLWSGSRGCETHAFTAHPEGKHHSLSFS
Put plainly: JAK3 Inhibition Assay (33P incorporation into poly(Glu)4Tyr). It counts as biochemical. The conditions noted are these: for Ki: 1 nM JAK3, 5 μM ATP, 1 μM poly(Glu)4Tyr, 25° C. The procedure:
Compounds were screened for their ability to inhibit JAK3 using the assay shown below. Reactions were carried out in a kinase buffer containing 100 mM HEPES (pH 7.4), 1 mM DTT, 10 mM MgCl2, 25 mM NaCl, and 0.01% BSA. Substrate concentrations in the assay were 5 μM ATP (200 uCi/μmole ATP) and 1 μM poly(Glu)4Tyr. Reactions were carried out at 25° C. and 1 nM JAK3.
To each well of a 96 well polycarbonate plate was added 1.5 μl of a candidate JAK3 inhibitor along with 50 μlof kinase buffer containing 2 μM poly(Glu)4Tyr and 10 μM ATP. This was then mixed and 50 μl of kinase buffer containing 2 nM JAK3 enzyme was added to start the reaction. After 20 minutes at room temperature (25° C.), the reaction was stopped with 50 μl of 20% trichloroacetic acid (TCA) that also contained 0.4 mM ATP. The entire contents of each well were then transferred to a 96 well glass fiber filter plate using a TomTek Cell Harvester. After washing, 60 μl of scintillation fluid was added and ^33P incorporation detected on a Perkin Elmer TopCount.

As usually defined, the Ki is a measure of affinity in units of concentration, obtained from inhibition or displacement. High values mean weaker binding, low ones tighter binding.

In turn, `Nc1nc(Nc2ccc(F)cc2)nn1-c1ncc(F)c(N2CCC[C@@H]2C(=O)NCC(F)(F)F)n1` [Compound 44] registered a Ki of 1 to 10 µM.

Consider `CC(C)(Nc1nc(-c2ccc3c(c2)OCO3)ncc1F)C(=O)NCC(F)(F)F` [Compound 67], for which the Ki lay in the range of 1 to 10 µM.

Molecule `O=C(NCc1ccccc1)c1cc(-c2nccc(N3CCC[C@@H]3C(=O)NCC(F)(F)F)n2)c[nH]1` [Compound 121] came in with a Ki of 1 to 10 µM.

For `CC(C)NC(=O)c1cc(-c2ncc(F)c(N3CCC[C@@H]3C(=O)NCC(F)(F)F)n2)c[nH]1` [Compound 117], the “inhibition of JAK3 at concentrations of 50 μM” value (shortened to “inhibition of JAK3”) was “did not inhibit”.

Turning to `COc1ccc(-c2ncc(F)c(NC(C)(C)C(=O)NCC(F)(F)F)n2)cc1` [Compound 124], the “inhibition of JAK3” value was “did not inhibit”.

As to `COc1ccc(-c2ncc(F)c(NCCC(=O)NCC(F)(F)F)n2)cn1` [Compound 14], the “inhibition of JAK3” value is given as “did not inhibit”.

`CC(C)[C@@H](Nc1nc(-c2c[nH]c(=O)c(N)c2)ncc1F)C(=O)NCC(F)(F)F` [Compound 137] yielded an inhibition constant (Ki) of 10 to 50 µM.

As to `CCNC(=O)c1cc(-c2ncc(F)c(NC(C)(C)C(=O)NCC(F)(F)F)n2)c[nH]1` [Compound 93], the Ki lay in the range of 1 to 10 µM.

`C[C@@H](Nc1nc(-c2cccnc2)ncc1F)C(=O)NCC(F)(F)F` [Compound 20] came in with a Ki of 10 to 50 µM.

`CC(C)[C@@H](Nc1ccnc(-c2c[nH]c(C(=O)N3CC=CC3)c2)n1)C(=O)NCC(F)(F)F` [Compound 114] registered a Ki of at most 1 µM.

On to `COc1ccc(-c2ncc(F)c(N[C@@H](C(=O)NCC(F)(F)F)C(C)C)n2)cn1` [Compound 81], for which the “inhibition of JAK3” value was “did not inhibit”.

In the case of `CC(C)(Nc1nc(-c2ccc3ncsc3c2)ncc1F)C(=O)NCC(F)(F)F` [Compound 140], the Ki was at most 1 µM.

Consider `Nc1ncccc1-c1ncc(F)c(N2CC(C(=O)NCC(F)(F)F)C2)n1` [Compound 32], for which the inhibition constant Ki lay in the range of 1 to 10 µM.

Take `CC(C)(Nc1ccnc(-c2ccc3nccnc3c2)n1)C(=O)NCC(F)(F)F` [Compound 163]: the Ki was at most 1 µM.

The molecule `Nc1nc(Nc2ccc(F)cc2)nn1-c1cc(NCCC(=O)NCC(F)(F)F)ncn1` [Compound 35] gave a Ki of at most 1 µM.

Take `Nc1ccc(Nc2nc(N)n(-c3ncc(F)c(N4CCCC4C(=O)NCC(F)(F)F)n3)n2)cc1` (stereo not drawn) [Compound 56]: the Ki was at most 1 µM.

`O=C(NCC(F)(F)F)[C@H]1CCCN1c1nc(-c2ccc3ncccc3c2)ncc1F` [Compound 89] came in with a Ki of 10 to 50 µM.

`CC(C)(Nc1ccnc(-c2c[nH]c(=O)c(N)c2)n1)C(=O)NCC(F)(F)F` [Compound 136] gave a Ki of 1 to 10 µM.

As for `C[C@H](Nc1nc(-c2cccnc2Cl)ncc1F)C(=O)NCC(F)(F)F` [Compound 5], the “inhibition of JAK3” value is “did not inhibit”.

For `O=C(CNc1nc(-c2ccc(F)nc2)ncc1F)NCC(F)(F)F` [Compound 9], the “inhibition of JAK3” value was “did not inhibit”.

`O=C(NCC(F)(F)F)[C@H]1CCCN1c1ccnc(-c2ccc3ncccc3c2)n1` [Compound 60] registered a Ki of 1 to 10 µM.

As to `CC(C)[C@H](Nc1ccnc(-c2cccnc2N)n1)C(=O)NCC(F)(F)F` [Compound 28], the inhibition constant (Ki) was in the range of 1 to 10 µM.

The molecule `O=C(NCC(F)(F)F)[C@H]1CCCN1c1ccnc(-c2ccc(O)cc2)n1` [Compound 147] returned an inhibition constant (Ki) of 1 to 10 µM.

Turning to `CC(C)[C@@H](Nc1ccnc(-c2c[nH]c(C(=O)O)c2)n1)C(=O)NCC(F)(F)F` [Compound 134], the “inhibition of JAK3” value was “did not inhibit”.

Take `CC[C@H](Nc1cc(-n2nc(Nc3ccc(F)cc3)nc2N)ncn1)C(=O)NCC(F)(F)F` [Compound 34]: the Ki was at most 1 µM.

For the molecule `COc1ccc(-c2nccc(N3CCC[C@@H]3C(=O)NCC(F)(F)F)n2)cn1` [Compound 62], the “inhibition of JAK3” value is on record as “did not inhibit”.

`CC(C)[C@@H](Nc1nc(-c2ccc3c(c2)OCO3)ncc1F)C(=O)NCC(F)(F)F` [Compound 76] displayed an inhibition constant (Ki) of 10 to 50 µM.
